Test results as given in patent US9198907B2, “Combinations of a HCV inhibitor such as bicyclic pyrrole derivatives and a therapeutic agent” (PTC Therapeutics, Inc., priority 2009, dated 2015).

System: HCV replicon RNA in replicon cells
Assay: Replicon RNA response to antiviral agent(s), replicon RNA level by real time PCR (Taqman assay)
Assay type: cell-based
Method: Replicon cells were seeded at ˜5000 cells/well in 96-well collagen I-coated Biocoat plates (Becton Dickinson). At 24 hrs post-seeding, a series of replicon cells were treated with a HCV protease inhibitor and a HCV inhibitor. The final concentration of DMSO was 0.5%, fetal bovine serum was 10%, and G418 (an aminoglycoside used as a selective agent) was 500 μg/mL.
To each concentration of Compound 10p, HCV inhibitor Compound 22 was titrated. After 3 days, the cells were washed with PBS and lysed in 1× Cell Lysis Buffer (Ambion cat #8721).
The replicon RNA level was measured using real time PCR (Taqman assay). The ampicon was located in NS5b. The PCR primers used were: 5B.2F, ATGGACAGGCGCCCTGA (SEQ ID NO: 1); 5B.2R, […] (SEQ ID NO: 2); the probe sequence was FAM-labeled CACGCCATGCGCTGCGG (SEQ ID NO: 3). GAPDH RNA was used as endogenous control and was amplified in the same reaction as NS5b (multiplex PCR) using primers and VIC-labeled probe recommended by the manufacturer (PE Applied Biosystem). The real-time RT-PCR reactions were run on ABI PRISM 7900HT Sequence Detection System using the following program: 48° C. for 30 min, 95° C. for 10 min, 40 cycles of 95° C. for 15 sec, 60° C. for 1 min. The ΔCT values (CT5B-CTGAPDH) were plotted against test compound concentration and fitted to the sigmoid dose response model using Graphpad PRISM software (Graphpad Software Inc.). The half maximal inhibitory concentration (IC50) is the concentration necessary to achieve ΔCT=1 over the projected baseline. The 90% maximal inhibitory concentration (IC90) is the concentration necessary to achieve ΔCT=3.2 over the baseline. Alternatively, to quantitate the absolute amount of replicon RNA, a standard curve was established by including serially diluted T7 transcripts of replicon RNA in the Taqman assay. All Taqman reagents were from PE Applied Biosystem.

| SMILES | relative inhibition (logarithmic scale) of replicon RNA (Cpd 10p 0.15 μM, Compound 22 0 μM, replicon cells treated 3 days) | relative inhibition (logarithmic scale) of replicon RNA (Cpd 10p 1.2 μM, Compound 22 0 μM, replicon cells treated 3 days) | relative inhibition (logarithmic scale) of replicon RNA (combination: Compound 22 0.045 μM + Cpd 10p 0.15 μM, 3 days) | relative inhibition (logarithmic scale) of replicon RNA (combination: Compound 22 0.045 μM + Cpd 10p 1.2 μM, 3 days) | relative inhibition (logarithmic scale) of replicon RNA (combination: Compound 22 0.405 μM + Cpd 10p 0.15 μM, 3 days) | relative inhibition (logarithmic scale) of replicon RNA (combination: Compound 22 0.405 μM + Cpd 10p 1.2 μM, 3 days) |
| --- | --- | --- | --- | --- | --- | --- |
| CC(C)(C)NC(=O)N[C@H](C(=O)N1C[C@H]2[C@@H]([C@H]1C(=O)NC(CC1CCC1)C(=O)C(N)=O)C2(C)C)C(C)(C)C (stereo partly drawn) [Cpd 10p, (1R,2S,5S)-N-(4-amino-1-cyclobutyl-3,4-dioxobutan-2-yl)-3-((S)-2-(3-tert-butylureido)-3,3-dimethylbutanoyl)-6,6-dimethyl-3-azabicyclo[3.1.0]hexane-2-carboxamide, reference compound] | −0.74 | −1.72 |  |  |  |  |
| COc1cnc2c(c1)c(C#N)c(-c1ccc(S(=O)(=O)N[C@@H](C)C(F)(F)F)cn1)n2C1CCC1 [Cpd 22, 6-(3-cyano-1-cyclobutyl-5-methoxy-1H-pyrrolo[2,3-b]pyridin-2-yl)-N-[(2S)-1,1,1-trifluoropropan-2-yl]pyridine-3-sulfonamide] |  |  | −1.09 | −1.77 | −1.45 | −1.91 |
